“Also recorded” adds a separate entry of the source.
How the values were obtained:
[1] = system: differentiated HDRGVIII-C10 cells; assay: Whole-cell patch clamp, ATP current in […]-C10; assay type: cell-based, human; details: 10 μM; differentiated 1-2 weeks
[2] = system: differentiated immortalized rat DRG cells; assay: Whole-cell patch clamp, ATP current in rat DRG cells; assay type: cell-based; details: for desensitization of elicited currents: 100 μM, 5-second applications, differentiated 3-4 weeks
HDRGVIII-C10.6 cells [3] = assay: Whole-cell patch clamp characterization of […]-C10.6; assay type: cell-based, human; details: for I Purinergic (αβmeATP): 100 μM; for I Capsaicin: 1 μM
[4] = system: immortalized rat DRG cultures; assay: βIII tubulin and NF160 immunolabeling, immortalized rat DRG cultures; assay type: cell-based; details: for βIII-tubulin positive cells: 10 ng/mL in combination with NGF, rat serum and retinoic acid, rat tail collagen substrate
v-myc oncoprotein = assay: Immunocytochemistry for v-myc in […]-C10; assay type: cell-based, human; details: after 6 days of tetracycline treatment (75±1.3% in proliferative condition)
HDRGVIII-C10 cells = assay: NF160 immunolabeling after differentiation of […]-C10; assay type: cell-based; details: 10 days with tetracycline, human serum, GDNF, CNTF, NGF plus forskolin (10 μM) or retinoic acid (0.5 μM)
From the text: Neuronal differentiation. […] After differentiation, phase-bright cells extending long fasciculating processes were present.

capsaicin receptors [5] = biological target: T1, capsaicin receptors (Homo sapiens, UniProt Q8NER1); assay: Whole-cell patch clamp, capsaicin current in […]-C10; assay type: cell-based
T1 construct: endogenous in cells

[6] = system: differentiated immortalized rat DRG cells; assay: Whole-cell patch clamp, capsaicin current in rat DRG cells; assay type: cell-based; details: differentiated rat DRG cells (n=6)
capsaicin receptors [7] = biological target: T1, capsaicin receptors; assay: Cobalt histology for capsaicin sensitivity, […]-C10.6; assay type: cell-based; details: 10 μM capsaicin; differentiated 7 days with T, HS, Fsk, G, C, N plus NT-3
From the text: (§1) In certain aspects of the present invention, conditionally-immortalized PNS progenitor cell lines may be used in a variety of in vitro assays and screens. In one such aspect, the cell lines may be used in in vitro assays for agents that inhibit the capsaicin response. Briefly, a clonal neuronal cell line may be differentiated under conditions in which capsaicin responsiveness can be assessed with a cobalt histological method. Capsaicin can be added to the culture in the presence or absence of a candidate agent, and cobalt uptake evaluated. Agents that block cobalt staining may act as capsaicin receptor antagonists.

capsaicin receptors [8] = biological target: T1, capsaicin receptors; assay: Cobalt histology for capsaicin sensitivity, […]-C11; assay type: cell-based
From the text: as §1

[9] = system: conditionally-immortalized rat neural crest stem cells; assay: βIII tubulin immunolabeling, immortalized rat neural crest stem cells; assay type: cell-based; details: with tetracycline, 5 days; LIF 100 ng/ml; EFN = EGF 100 ng/ml, FGF-2 4 ng/ml, NGF 2.0 ng/ml
HDRGVIII-C11 cells = assay: βIII-tubulin-positive neurons after differentiation of […]-C11; assay type: cell-based, human
HDRGVIII-C10.6 cells [10] = assay: Peripherin immunolabeling after differentiation of […]-C10.6; assay type: cell-based, human; details: T, HS, Fsk, G, C, N, plus NT-3 (25 ng/ml), 5 days (31±9% without NT-3)

T1 sequence (Q8NER1 whole entry): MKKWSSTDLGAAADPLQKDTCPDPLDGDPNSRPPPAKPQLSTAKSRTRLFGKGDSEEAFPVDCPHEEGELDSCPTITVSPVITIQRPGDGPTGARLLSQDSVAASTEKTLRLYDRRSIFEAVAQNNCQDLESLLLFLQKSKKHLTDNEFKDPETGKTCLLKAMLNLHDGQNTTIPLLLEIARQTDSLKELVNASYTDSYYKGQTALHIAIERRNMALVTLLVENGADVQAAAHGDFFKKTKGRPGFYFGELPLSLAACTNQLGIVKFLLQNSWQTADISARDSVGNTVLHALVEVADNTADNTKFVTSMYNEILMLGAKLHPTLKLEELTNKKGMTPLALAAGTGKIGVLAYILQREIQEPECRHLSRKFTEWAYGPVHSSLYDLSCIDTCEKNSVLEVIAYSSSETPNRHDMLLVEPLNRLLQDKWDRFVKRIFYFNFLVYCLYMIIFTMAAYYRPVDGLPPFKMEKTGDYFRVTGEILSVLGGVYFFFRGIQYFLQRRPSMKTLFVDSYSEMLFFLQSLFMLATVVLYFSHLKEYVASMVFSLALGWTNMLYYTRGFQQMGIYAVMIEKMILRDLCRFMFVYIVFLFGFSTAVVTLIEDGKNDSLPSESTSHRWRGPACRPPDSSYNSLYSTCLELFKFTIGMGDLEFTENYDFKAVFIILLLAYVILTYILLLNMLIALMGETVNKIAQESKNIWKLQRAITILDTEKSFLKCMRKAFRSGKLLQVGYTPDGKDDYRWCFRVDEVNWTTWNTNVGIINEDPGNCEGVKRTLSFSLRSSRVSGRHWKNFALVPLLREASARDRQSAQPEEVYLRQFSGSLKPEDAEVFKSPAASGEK

Molecule: Nc1ncnc2c1ncn2[C@@H]1O[C@H](COP(=O)(O)CP(=O)(O)OP(=O)(O)O)[C@@H](O)[C@H]1O [αβ-meATP, αβ-methylene-ATP]
- currents elicited [1]: Rapidly activating and strongly desensitizing currents
- desensitization of elicited currents [2]: ~15%
- cells with αβ-meATP responses ([2]; differentiated rat DRG cells): 1 of 20
- I Purinergic (αβmeATP) (HDRGVIII-C10.6 cells [3]; Proliferative, held at -80 mV): 29 ± 15 pA
- I Purinergic (αβmeATP) (HDRGVIII-C10.6 cells [3]; THSFskGCN, 8 days): 3 ± 3 pA
- I Purinergic (αβmeATP) (HDRGVIII-C10.6 cells [3]; THSFskGCN, 11 days): 226 ± 80 pA

Molecule: IL-1β: interleukin-1β
- βIII-tubulin positive cells [4]: 33%

Molecule: CN(C)[C@@H]1C(O)=C(C(N)=O)C(=O)[C@@]2(O)C(O)=C3C(=O)c4c(O)cccc4[C@@](C)(O)[C@H]3C[C@@H]12 [tetracycline]
- percentage of v-myc positive cells (v-myc oncoprotein): 1.1±0.8%
- βIII tubulin positive neurons ([4]; tetracycline alone): ~2.5%

Molecule: CC1=C(/C=C/C(C)=C/C=C/C(C)=C/C(=O)O)C(C)(C)CCC1 [retinoic acid]
- cells with NF160 staining (HDRGVIII-C10 cells): 8.1%

Molecule: COc1cc(CNC(=O)CCCC/C=C/C(C)C)ccc1O [capsaicin]
- response to capsaicin (capsaicin receptors [5]; 1 μM, differentiated cells with neuronal morphology): exhibited responses
- response to capsaicin (capsaicin receptors [5]; prior to differentiation): no immortalized human PNS HDRGVIII-C10 cells exhibited responses
- response to capsaicin [6]: did not exhibit responses
- cells with neuronal morphology exhibiting cobalt uptake (capsaicin receptors [7]): 30.8±2.9%
- cells with neuronal morphology sensitive to capsaicin (cobalt precipitate) (capsaicin receptors [8]; 10 μM or 100 μM, differentiated with T, HS, Fsk, G, C, N plus NT-3): Approximately 30%
- I Capsaicin (HDRGVIII-C10.6 cells [3]; Proliferative, held at -80 mV): 0 pA
- I Capsaicin (HDRGVIII-C10.6 cells [3]; THSFskGCN, 8 days): 114 ± 14 pA
- I Capsaicin (HDRGVIII-C10.6 cells [3]; THSFskGCN, 11 days): 217 ± 36 pA

Molecule: C=C[C@@]1(C)CC(=O)[C@]2(O)[C@@]3(C)[C@@H](O)CCC(C)(C)[C@@H]3[C@H](O)[C@H](OC(C)=O)[C@@]2(C)O1 [forskolin]
- cells with NF160 staining (HDRGVIII-C10 cells): 15±2.2%

Molecule: NC1=N[C@H](O)[C@H]2[C@H]3O[C@]4(O)O[C@@H]([C@@H](O)[C@@]2(N1)[C@@H]4O)[C@]3(O)CO [TTX, tetrodotoxin]
- sensitivity of voltage-gated sodium currents (HDRGVIII-C10.6 cells [3]): TTX-sensitive

Molecule: Nc1ncnc2c1ncn2[C@@H]1O[C@H](COP(=O)(O)OP(=O)(O)OP(=O)(O)O)[C@@H](O)[C@H]1O [ATP]
- desensitization of elicited currents [2]: ~15%
- cells with ATP-activated current ([2]; after 1 week of differentiation (n=14)): no cells
- cells with ATP-activated current ([2]; after 3 weeks of differentiation): ~30%

Molecule: LIF: leukemia inhibitory factor
- βIII tubulin positive cells [9]: 28.4%

Molecule: Oc1cc2c(cc1O)CN(C(=S)NCCc1ccc(Cl)cc1)CCC2 [capsazepine]
- effect on response to 1 μM capsaicin (capsaicin receptors [5]; 20 μM capsazepine): blocked; also recorded: inhibited
- effect on capsaicin (10 μM)-induced cobalt labeling (capsaicin receptors [8]; 100 μM capsazepine): reduced substantially

B1: IL-11: interleukin IL-11, differentiating factor (protein, UniProt P20809 22-199, looked up)
Interleukin-11: PGPPPGPPRVSPDPRAELDSTVLLTRSLLADTRQLAAQLRDKFPADGDHNLDSLPTLAMSAGALGALQLPGVLTRLRADLLSYLRHVQWLRRAGGSSLKTLEPELGTLQARLDRLLRRLQLLMSRLALPQPPPDPPAPPLAPPSSAWGGIRAAHAILGGLHLTLDWAVRGLLLLKTRL
- βIII-tubulin positive cells [4]: 34%
- βIII-tubulin-positive neurons (HDRGVIII-C11 cells; differentiated with T, HS, Fsk, NGF plus IL-11): 1.5±0.9%

B2: NT-3: neurotrophin-3 (protein, UniProt P20783 139-257, looked up)
Neurotrophin-3: YAEHKSHRGEYSVCDSESLWVTDKSSAIDIRGHQVTVLGEIKTGNSPVKQYFYETRCKEARPVKNGCRGIDDKHWNSQCKTSQTYVRALTSENNKLVGWRWIRIDTSCVCALSRKIGRT
- βIII tubulin positive cells expressing NF160 ([4]; NT-3 added to medium containing NGF plus LIF or CNTF (less than 25% in absence of NT-3)): ≥ 65%
- cells differentiated into βIII-tubulin-positive neurons (HDRGVIII-C11 cells; NT-3 added to standard differentiating medium (1.4±0.6% without NT-3)): 4.0±2.2%
- cells expressing peripherin (HDRGVIII-C10.6 cells [10]): 43±8%
